Laboratory results published in patent publication US20100267561A1, “HERBICIDAL PYRIDAZINONE DERIVATIVES” (priority 2007, published 2010).

Assays:
Type in all cases: in vivo
[1] = system: canola (Brassica rapa); test: Test C pre-/postemergence plant response
Procedure, shortened: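 Both preemergence (to planted seed) and postemergence (to plants 2–18 cm high, 1- to 4-leaf) applications used test chemicals in a non-phytotoxic solvent mixture containing surfactant. Evaluation: visual comparison with controls after 15 to 25 days; 0 means no effect, 100 complete control.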

[2] = system: Russian thistle (Salsola kali); test: Test E pre-/postemergence plant response; settings: Preemergence, scale 0 to 100
Procedure, shortened: (§1)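 Steps: sow seeds; apply compound preemergence in a non-phytotoxic solvent/surfactant formulation; in parallel, spray the same formulation postemergence on 1- to 4-leaf plants (2–18 cm); hold 14–21 days in a greenhouse; rate visually vs controls, 0 = no effect, 100 = complete control.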

[3] = system: Virginia (V.) dayflower (Commelina virginica); test: Test E pre-/postemergence plant response; settings: scale 0 to 100
Procedure, shortened: as §1

[4] = system: common sowthistle (Sonchus oleraceous); test: Test E pre-/postemergence plant response; settings: scale 0 to 100
Procedure, shortened: as §1

[5] = system: kochia (Kochia scoparia); test: Test E pre-/postemergence plant response; settings: scale 0 to 100
Procedure, shortened: as §1

[6] = system: prickly sida (Sida spinosa); test: Test E pre-/postemergence plant response; settings: scale 0 to 100
Procedure, shortened: as §1

[7] = system: wild oat (AVEFA, Avena fatua); test: Test F mixtures with safener cloquintocet-mexyl, pre-/postemergence plant response; settings: applied alone
Excerpt: (§2) This test evaluated the effect of mixtures of Compound 3, Compound 11, or Compound 12 with the commercial crop safener cloquintocet-mexyl on three plant species. Seeds of test plants consisting of winter wheat (TRZAW, Triticum aestivum), winter barley (HORVX, Hordeum vulgare), and wild oat (AVEFA, Avena fatua) (a weed) were planted into a blend of loam soil and sand and treated preemergence with a directed soil spray using test chemicals formulated in a non-phytotoxic solvent mixture that included a surfactant. At the same time, plants selected from these crop and weed species were treated with postemergence applications of the test chemicals formulated in the same manner. Plants ranged in height from 2 to 18 cm (1- to 4-leaf stage) for postemergence treatments.
(§3) Plants were grown in a greenhouse using supplemental lighting to maintain a photoperiod of about 16 hours; daytime and nighttime temperatures were about 24-30° C. and 19-21° C., respectively. Balanced fertilizer was applied through the watering system. Treatments consisted of Compound 3, Compound 11, or Compound 12 and the above mentioned safener alone and in combination using a spray volume of 457 L/ha. Each treatment was replicated three times. Treated plants and controls were maintained in a greenhouse for 14 to 21 days, after which time all treated plants were compared to controls and visually evaluated. Plant response ratings were calculated as the means of the three replicates and are summarized in Tables F1 to F6, and are based on a scale of 0 to 100 where 0 is no effect and 100 is complete control. Because cloquintocet-mexyl alone caused no injury at the rates tested, the expected effect of a mixture of Compound 3 with cloquintocet-mexyl is the same as the observed effect of Compound 3 applied alone.

[8] = system: winter wheat (TRZAW, Triticum aestivum); test: as above; settings: applied alone
Excerpt: as §2, §3

[9] = Postemergence, 8 g ai/ha, scale 0 to 100, 0 no effect, 100 complete control
[10] = Postemergence, 16 g ai/ha, scale 0 to 100, 0 no effect, 100 complete control
[11] = Postemergence, 31 g ai/ha, scale 0 to 100, 0 no effect, 100 complete control
[12] = Postemergence, 62 g ai/ha, scale 0 to 100, 0 no effect, 100 complete control
[13] = Preemergence, 8 g ai/ha, scale 0 to 100 (0 no effect, 100 complete control)
[14] = Preemergence, 16 g ai/ha, scale 0 to 100 (0 no effect, 100 complete control)
[15] = Preemergence, 31 g ai/ha, scale 0 to 100 (0 no effect, 100 complete control)
[16] = Preemergence, 62 g ai/ha, scale 0 to 100, 0 no effect, 100 complete control

CCc1cc(-c2ccc(C(F)(F)F)cc2)nn1-c1c(O)cnn(C)c1=O [Compound 11, 4-[5-ethyl-3-[4-(trifluoromethyl)phenyl]-1H-pyrazol-1-yl]-5-hydroxy-2-methyl-3(2H)-pyridazinone]
Plant response rating, Canola [1, 9]: 0
Plant response rating, Canola [1, 10]: 0
Plant response rating, Canola [1, 11]: 0
Plant response rating, Canola [1, 12]: 0
Plant response rating, Canola [1, 13]: 0
Plant response rating, Canola [1, 14]: 0
Plant response rating, Canola [1, 15]: 0
Plant response rating, Canola [1, 16]: 0
Plant response rating, Thistle, Russian ([2]; 31 g ai/ha): 0
Plant response rating, Dayflower, V. ([3]; 4 g ai/ha, Postemergence): 0
Plant response rating, Dayflower, V. ([3]; 8 g ai/ha, Preemergence): 0
Plant response rating, Dayflower, V. ([3]; 16 g ai/ha, Preemergence): 0
Plant response rating, Dayflower, V. ([3]; 31 g ai/ha, Preemergence): 0
Plant response rating, Dayflower, V. ([3]; Postemergence, 8 g ai/ha): 0
Plant response rating, Dayflower, V. ([3]; Postemergence, 16 g ai/ha): 0
Plant response rating, Dayflower, V. ([3]; Postemergence, 31 g ai/ha): 0
Plant response rating, Dayflower, V. ([3]; Preemergence, 4 g ai/ha): 0
Plant response rating, Sowthistle ([4]; 4 g ai/ha, Postemergence): 0
Plant response rating, Sowthistle ([4]; 16 g ai/ha, Preemergence): 0
Plant response rating, Sowthistle ([4]; Postemergence, 8 g ai/ha): 0
Plant response rating, Sowthistle ([4]; Postemergence, 16 g ai/ha): 0
Plant response rating, Sowthistle ([4]; Postemergence, 31 g ai/ha): 0
Plant response rating, Kochia ([5]; 4 g ai/ha, Postemergence): 0
Plant response rating, Kochia ([5]; 16 g ai/ha, Preemergence): 0
Plant response rating, Kochia ([5]; 31 g ai/ha, Preemergence): 0
Plant response rating, Kochia ([5]; Postemergence, 8 g ai/ha): 0
Plant response rating, Kochia ([5]; Postemergence, 16 g ai/ha): 0
Plant response rating, Kochia ([5]; Postemergence, 31 g ai/ha): 0
Plant response rating, Kochia ([5]; Preemergence, 4 g ai/ha): 0
Plant response rating, Prickly Sida ([6]; 4 g ai/ha, Postemergence): 0
Plant response rating, Prickly Sida ([6]; 16 g ai/ha, Preemergence): 0
Plant response rating, Prickly Sida ([6]; 31 g ai/ha, Preemergence): 0
Plant response rating, Prickly Sida ([6]; Postemergence, 8 g ai/ha): 0
Plant response rating, Prickly Sida ([6]; Postemergence, 16 g ai/ha): 0
Plant response rating, Prickly Sida ([6]; Postemergence, 31 g ai/ha): 0
Plant response rating, Prickly Sida ([6]; Preemergence, 4 g ai/ha): 0
AVEFA Obsd. (observed effect) plant response rating, scale 0 to 100 ([7]; postemergence, 4 g a.i./ha): 75
AVEFA Obsd. (observed effect) plant response rating, scale 0 to 100 ([7]; postemergence, 8 g a.i./ha): 97
AVEFA Obsd. (observed effect) plant response rating, scale 0 to 100 ([7]; postemergence, 16 g a.i./ha): 98
AVEFA Obsd. (observed effect) plant response rating, scale 0 to 100 ([7]; preemergence, 4 g a.i./ha): 58
AVEFA Obsd. (observed effect) plant response rating, scale 0 to 100 ([7]; preemergence, 8 g a.i./ha): 77
AVEFA Obsd. (observed effect) plant response rating, scale 0 to 100 ([7]; preemergence, 16 g a.i./ha): 93
TRZAW Obsd. (observed effect) plant response rating, scale 0 to 100 ([8]; postemergence, 4 g a.i./ha): 18
TRZAW Obsd. (observed effect) plant response rating, scale 0 to 100 ([8]; postemergence, 8 g a.i./ha): 3
TRZAW Obsd. (observed effect) plant response rating, scale 0 to 100 ([8]; postemergence, 16 g a.i./ha): 32
TRZAW Obsd. (observed effect) plant response rating, scale 0 to 100 ([8]; preemergence, 4 g a.i./ha): 32
TRZAW Obsd. (observed effect) plant response rating, scale 0 to 100 ([8]; preemergence, 8 g a.i./ha): 72
TRZAW Obsd. (observed effect) plant response rating, scale 0 to 100 ([8]; preemergence, 16 g a.i./ha): 92

CCc1cc(-c2ccc(C(F)(F)F)cc2)nn1-c1c(OS(C)(=O)=O)cnn(C)c1=O [Compound 19]
Plant response rating, Canola [1, 9]: 0
Plant response rating, Canola [1, 10]: 0
Plant response rating, Canola [1, 11]: 0
Plant response rating, Canola [1, 12]: 0
Plant response rating, Canola [1, 13]: 0
Plant response rating, Canola [1, 14]: 0
Plant response rating, Canola [1, 15]: 0
Plant response rating, Canola [1, 16]: 0
Plant response rating, Thistle, Russian ([2]; 31 g ai/ha): 0
Plant response rating, Dayflower, V. ([3]; 4 g ai/ha, Postemergence): 0
Plant response rating, Dayflower, V. ([3]; 8 g ai/ha, Preemergence): 0
Plant response rating, Dayflower, V. ([3]; 16 g ai/ha, Preemergence): 0
Plant response rating, Dayflower, V. ([3]; Postemergence, 8 g ai/ha): 0
Plant response rating, Dayflower, V. ([3]; Postemergence, 16 g ai/ha): 0
Plant response rating, Dayflower, V. ([3]; Postemergence, 31 g ai/ha): 0
Plant response rating, Dayflower, V. ([3]; Preemergence, 4 g ai/ha): 0
Plant response rating, Sowthistle ([4]; 4 g ai/ha, Postemergence): 0
Plant response rating, Sowthistle ([4]; Postemergence, 8 g ai/ha): 0
Plant response rating, Sowthistle ([4]; Postemergence, 16 g ai/ha): 0
Plant response rating, Sowthistle ([4]; Postemergence, 31 g ai/ha): 0
Plant response rating, Kochia ([5]; 4 g ai/ha, Postemergence): 0
Plant response rating, Kochia ([5]; 16 g ai/ha, Preemergence): 0
Plant response rating, Kochia ([5]; 31 g ai/ha, Preemergence): 0
Plant response rating, Kochia ([5]; Postemergence, 16 g ai/ha): 0
Plant response rating, Kochia ([5]; Preemergence, 4 g ai/ha): 0
Plant response rating, Prickly Sida ([6]; 4 g ai/ha, Postemergence): 0
Plant response rating, Prickly Sida ([6]; 16 g ai/ha, Preemergence): 0
Plant response rating, Prickly Sida ([6]; 31 g ai/ha, Preemergence): 0
Plant response rating, Prickly Sida ([6]; Postemergence, 8 g ai/ha): 0
Plant response rating, Prickly Sida ([6]; Postemergence, 16 g ai/ha): 0
Plant response rating, Prickly Sida ([6]; Postemergence, 31 g ai/ha): 0
Plant response rating, Prickly Sida ([6]; Preemergence, 4 g ai/ha): 0

Cc1cc(-c2ccc(Cl)cc2)nn1-c1c(OC(=O)C(C)C)cnn(C)c1=O [Compound 34]
Plant response rating, Canola [1, 13]: 0
Plant response rating, Canola [1, 14]: 0
Plant response rating, Canola [1, 15]: 0
Plant response rating, Canola [1, 16]: 0
Plant response rating, Thistle, Russian ([2]; 16 g ai/ha): 0
Plant response rating, Thistle, Russian ([2]; 31 g ai/ha): 0
Plant response rating, Thistle, Russian ([2]; 62 g ai/ha): 0
Plant response rating, Dayflower, V. ([3]; 16 g ai/ha, Preemergence): 0
Plant response rating, Dayflower, V. ([3]; 31 g ai/ha, Preemergence): 0
Plant response rating, Dayflower, V. ([3]; 62 g ai/ha, Preemergence): 0
Plant response rating, Dayflower, V. ([3]; Postemergence, 8 g ai/ha): 0
Plant response rating, Dayflower, V. ([3]; Postemergence, 16 g ai/ha): 0
Plant response rating, Dayflower, V. ([3]; Postemergence, 31 g ai/ha): 0
Plant response rating, Dayflower, V. ([3]; Postemergence, 62 g ai/ha): 0
Plant response rating, Sowthistle ([4]; 16 g ai/ha, Preemergence): 0
Plant response rating, Sowthistle ([4]; 31 g ai/ha, Preemergence): 0
Plant response rating, Sowthistle ([4]; 62 g ai/ha, Preemergence): 0
Plant response rating, Sowthistle ([4]; Postemergence, 8 g ai/ha): 0
Plant response rating, Sowthistle ([4]; Postemergence, 16 g ai/ha): 0
Plant response rating, Sowthistle ([4]; Postemergence, 31 g ai/ha): 0
Plant response rating, Sowthistle ([4]; Postemergence, 62 g ai/ha): 0
Plant response rating, Kochia ([5]; 16 g ai/ha, Preemergence): 0
Plant response rating, Kochia ([5]; 31 g ai/ha, Preemergence): 0
Plant response rating, Kochia ([5]; 62 g ai/ha, Preemergence): 0
Plant response rating, Prickly Sida ([6]; 16 g ai/ha, Preemergence): 0
Plant response rating, Prickly Sida ([6]; 31 g ai/ha, Preemergence): 0
Plant response rating, Prickly Sida ([6]; 62 g ai/ha, Preemergence): 0
Plant response rating, Prickly Sida ([6]; Postemergence, 8 g ai/ha): 0
Plant response rating, Prickly Sida ([6]; Postemergence, 16 g ai/ha): 0
Plant response rating, Prickly Sida ([6]; Postemergence, 31 g ai/ha): 0
Plant response rating, Prickly Sida ([6]; Postemergence, 62 g ai/ha): 0
